Converted amounts (≈) assume the structure as drawn.
Legend:
Streptococcus pneumoniae = assay: Antibacterial activity against Streptococcus pneumoniae ATCC49619 assessed as inhibition of bacterial growth incubated for 18 hrs by CLSI protocol based microbroth dilution method; assay type: functional
Bacillus subtilis = assay: Antibacterial activity against Bacillus subtilis BNCC336690 assessed as inhibition of bacterial growth incubated for 18 hrs by CLSI protocol based microbroth dilution method; assay type: functional
Salmonella enteritidis = assay: Antibacterial activity against Salmonella enteritidis BNCC281091 assessed as inhibition of bacterial growth incubated for 18 hrs by CLSI protocol based microbroth dilution method; assay type: functional, Salmonella enterica subsp. enterica serovar Enteritidis; conditions: Salmonella enterica
Pseudomonas aeruginosa = assay: Antibacterial activity against Pseudomonas aeruginosa BNCC337940 assessed as inhibition of bacterial growth incubated for 18 hrs by CLSI protocol based microbroth dilution method; assay type: functional
Staphylococcus aureus [1] = assay: Antibacterial activity against methicillin-resistant Staphylococcus aureus ATCC43300; assay type: functional
Escherichia coli [2] = assay: Antibacterial activity against penicillin-susceptible Escherichia coli ATCC25922; assay type: functional
Staphylococcus aureus [3] = assay: Antibacterial activity against methicillin-resistant Staphylococcus aureus ATCC43300 assessed as inhibition of bacterial growth incubated for 18 hrs by CLSI protocol based microbroth dilution method; assay type: functional
Escherichia coli [4] = assay: Antibacterial activity against penicillin-susceptible Escherichia coli ATCC25922 assessed as inhibition of bacterial growth incubated for 18 hrs by CLSI protocol based microbroth dilution method; assay type: functional
Staphylococcus aureus [5] = assay: Bactericidal activity against methicillin-resistant Staphylococcus aureus ATCC43300 incubated for 24 hrs by CLSI protocol based microbroth dilution method; assay type: functional
Escherichia coli [6] = assay: Bactericidal activity against penicillin-susceptible Escherichia coli ATCC25922 incubated for 24 hrs by CLSI protocol based microbroth dilution method; assay type: functional
Staphylococcus aureus [7] = assay: Selectivity ratio of MBC for bactericidal activity against methicillin-resistant Staphylococcus aureus ATCC43300 to MIC for antibacterial activity against methicillin-resistant Staphylococcus aureus ATCC43300; assay type: functional
[8] = Selectivity ratio of MBC for bactericidal activity against penicillin-susceptible Escherichia coli ATCC25922 to MIC for antibacterial activity against penicillin-susceptible Escherichia coli ATCC25922; assay type: functional

Row | SMILES | MIC (Streptococcus pneumoniae) | MIC (Bacillus subtilis) | MIC (Salmonella enteritidis) | MIC (Pseudomonas aeruginosa) | MIC (Staphylococcus aureus [1]) | MIC (Escherichia coli [2]) | MIC (Staphylococcus aureus [3]) | MIC (Escherichia coli [4]) | MBC (Staphylococcus aureus [5]) | MBC (Escherichia coli [6]) | Selectivity ratio (Staphylococcus aureus [7]) | Selectivity ratio [8]
1 | COc1ccc(-c2ccc3[nH]c4c5[n+](ccc4c3c2)-c2ccccc2C5=O)cc1.[Cl-] | 0.195 µg/mL | 0.195 µg/mL | > 200 µg/mL | > 200 µg/mL | 0.78 µg/mL | 25 µg/mL | – | – | – | – | – | –
2 | Cc1ccc(-c2ccc3[nH]c4c5[n+](ccc4c3c2)-c2ccccc2C5=O)cc1.[Cl-] | 0.195 µg/mL | 0.195 µg/mL | > 200 µg/mL | > 200 µg/mL | 0.39 µg/mL | 12.5 µg/mL | – | – | – | – | – | –
3 | CCCc1ccc(-c2ccc3[nH]c4c5[n+](ccc4c3c2)-c2ccccc2C5=O)cc1.[Cl-] | 0.195 µg/mL | 0.195 µg/mL | > 200 µg/mL | > 200 µg/mL | – | – | 1.56 µg/mL | > 200 µg/mL | – | – | – | –
4 | O=C1c2ccccc2-[n+]2ccc3c([nH]c4ccccc43)c21 [FASCAPLYSIN] | – | – | – | – | – | – | 0.78 µg/mL | 12.5 µg/mL | 1.56 µg/mL | 25 µg/mL | 2 | 2
5 | Cc1cccc(-c2ccc3[nH]c4c5[n+](ccc4c3c2)-c2ccccc2C5=O)c1.[Cl-] | 0.195 µg/mL | 0.195 µg/mL | > 200 µg/mL | > 200 µg/mL | – | – | 0.39 µg/mL | > 200 µg/mL | – | – | – | –
6 | O=C1c2ccccc2-[n+]2ccc3c([nH]c4ccc(-c5cc(F)cc(F)c5)cc43)c21.[Cl-] | 0.195 µg/mL | 0.195 µg/mL | > 200 µg/mL | > 200 µg/mL | – | – | 3.12 µg/mL | 12.5 µg/mL | – | – | – | –
7 | O=C1c2ccccc2-[n+]2ccc3c([nH]c4ccc(-c5ccc(F)cc5)cc43)c21.[Cl-] | 0.195 µg/mL | 0.195 µg/mL | > 200 µg/mL | > 200 µg/mL | 1.56 µg/mL | 6.25 µg/mL | – | – | – | – | – | –
8 | CCCCc1ccc(-c2ccc3[nH]c4c5[n+](ccc4c3c2)-c2ccccc2C5=O)cc1.[Cl-] | 0.78 µg/mL | 1.56 µg/mL | > 200 µg/mL | > 200 µg/mL | – | – | 6.25 µg/mL | > 200 µg/mL | – | – | – | –
9 | CCc1ccc(-c2ccc3[nH]c4c5[n+](ccc4c3c2)-c2ccccc2C5=O)cc1.[Cl-] | 0.195 µg/mL | 0.195 µg/mL | > 200 µg/mL | > 200 µg/mL | – | – | 1.56 µg/mL | > 200 µg/mL | – | – | – | –
10 | O=C1c2ccccc2-[n+]2ccc3c([nH]c4ccc(-c5ccc(C(F)(F)F)cc5)cc43)c21.[Cl-] | 1.56 µg/mL | 0.195 µg/mL | > 200 µg/mL | > 200 µg/mL | 0.39 µg/mL | 1.56 µg/mL | – | – | – | – | – | –
11 | O=C1c2ccccc2-[n+]2ccc3c([nH]c4ccc(-c5ccc(F)cc5F)cc43)c21.[Cl-] | 0.195 µg/mL | 0.195 µg/mL | > 200 µg/mL | > 200 µg/mL | 0.195 µg/mL | 1.56 µg/mL | – | – | – | – | – | –
12 | Cc1ccc(-c2ccc3[nH]c4c5[n+](ccc4c3c2)-c2ccccc2C5=O)cc1C.[Cl-] | 0.78 µg/mL | 0.195 µg/mL | > 200 µg/mL | > 200 µg/mL | – | – | 6.25 µg/mL | > 200 µg/mL | – | – | – | –
13 | CN[C@H](CC(C)C)C(=O)N[C@H]1C(=O)N[C@@H](CC(N)=O)C(=O)N[C@H]2C(=O)N[C@H]3C(=O)N[C@H](C(=O)N[C@H](C(=O)O)c4cc(O)cc(O)c4-c4cc3ccc4O)[C@H](O)c3ccc(c(Cl)c3)Oc3cc2cc(c3O[C@@H]2O[C@H](CO)[C@@H](O)[C@H](O)[C@H]2O[C@H]2C[C@](C)(N)[C@H](O)[C@H](C)O2)Oc2ccc(cc2Cl)[C@H]1O [VANCOMYCIN] | 1.56 µg/mL (≈ 1.08 µM) | 0.39 µg/mL (≈ 0.269 µM) | – | – | – | – | – | – | 1 µg/mL (≈ 0.69 µM) | 3.12 µg/mL (≈ 2.16 µM) | – | –
14 | O=C1c2ccccc2-[n+]2ccc3c([nH]c4ccc(-c5ccc(Cl)cc5)cc43)c21.[Cl-] | 0.39 µg/mL | 0.195 µg/mL | > 200 µg/mL | > 200 µg/mL | – | – | 1.56 µg/mL | > 200 µg/mL | – | – | – | –
15 | O=C1c2ccccc2-[n+]2ccc3c([nH]c4ccc(-c5cccc(Cl)c5)cc43)c21.[Cl-] | 0.195 µg/mL | 0.195 µg/mL | > 200 µg/mL | > 200 µg/mL | – | – | 0.39 µg/mL | 25 µg/mL | – | – | – | –
16 | O=C1c2ccccc2-[n+]2ccc3c([nH]c4ccc(-c5ccccc5)cc43)c21.[Cl-] | 0.195 µg/mL | 0.195 µg/mL | > 200 µg/mL | 200 µg/mL | 0.78 µg/mL | 3.12 µg/mL | – | – | – | – | – | –
17 | COc1cccc(-c2ccc3[nH]c4c5[n+](ccc4c3c2)-c2ccccc2C5=O)c1.[Cl-] | 0.39 µg/mL | 0.195 µg/mL | > 200 µg/mL | > 200 µg/mL | 0.39 µg/mL | 12.5 µg/mL | – | – | – | – | – | –

Reference: ChEMBL document CHEMBL5500342, “Rational molecular design converting fascaplysin derivatives to potent broad-spectrum inhibitors against bacterial pathogens via targeting FtsZ” (Eur J Med Chem, 2024)
